Measured values published in patent US7189754B2, “Pyrrolidine ester derivatives with oxytocin modulating activity” (Applied Research Systems ARS Holding NV, priority 2001, dated 2007).

What was measured:
ratOT-R = molecular target: T1, ratOT-R (Rattus norvegicus, UniProt P70536); assay: Functional assay No. 2: inhibition of IP3-synthesis in HEK/EBNA-OTR cells; format: cell-based; settings: oxytocin 10 nM, [3H]-inositol
T1 construct: expressed in transfected cells; host or cells: HEK/EBNA
T1 sequence (P70536 1-388): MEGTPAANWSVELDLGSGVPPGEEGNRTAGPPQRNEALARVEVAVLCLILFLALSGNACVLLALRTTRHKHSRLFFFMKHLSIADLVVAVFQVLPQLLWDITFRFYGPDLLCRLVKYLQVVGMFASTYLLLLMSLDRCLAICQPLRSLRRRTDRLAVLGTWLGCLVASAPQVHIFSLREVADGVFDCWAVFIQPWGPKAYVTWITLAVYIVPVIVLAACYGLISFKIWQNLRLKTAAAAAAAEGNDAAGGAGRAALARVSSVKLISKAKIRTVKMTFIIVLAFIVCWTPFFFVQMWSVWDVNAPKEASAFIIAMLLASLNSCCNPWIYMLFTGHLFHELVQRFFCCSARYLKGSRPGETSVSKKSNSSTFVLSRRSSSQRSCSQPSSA
Source text: c) Functional Assay No. 2: Inhibition of IP3 (Inositol Tri-Phosphate)-Synthesis in HEK/EBNA-OTR cells
The interaction of OT on the OT-receptor leads to the IP3 synthesis, IP3 being a second messenger for the Ca^2+ release from sarcoplasmic reticulum, involved in the uterine contraction triggering process (see Mitchell, B. F. and Schmid, B. J. Soc. Gynecol. Invest. 2001, 8,122–33).
This assay can be used to show the inhibition of the OT/OT-R mediated IP3 synthesis by using test compounds of formula (I).
Stimulation of the cells: HEK/EBNA OTR (rat or human) cells are plated out-into costar 12-well plates, and equilibrated for 15–24 h with 4 μCi/ml radiolabelled [^3H]-Inositol with 1% FCS (0.5 ml/well) and without inositol supplement. The medium containing the label is aspirated. […]
The amount of the radiolabelled IP3 may be determined through the ensuing work-up. […]
Elution of total IP's: Elution is achieved using 3 ml 1M ammonium formate/0.1M formic acid. […] The amount of [^3H]-IP3 is determined by a scintillating counter.
The ability of compounds of formula(I) to effectively antagonize oxytocin-induced IP3synthesis mediated by the oxytocin receptor, can be assessed using the above described in vitro biological assay.

[1] = test system: oxytocin-induced uterine contractions in the rat; assay: In vivo model for inhibition of uterine contractions (oxytocin-induced, anaesthetised DES-treated rats); settings: intravenous, PEG400/saline 50:50, 5 ml/kg infusion
Description: d) In Vivo Model for Inhibtion of Uterine Contractions
The assay evaluates the biological effect of tested compounds in an in vivo model of preterm labor, premature birth.
Non-pregnant Charles River CD (SD) BR female rats (9–10 weeks old, 200–250 g) were treated at 18 and 24 hours before the experiment with 250 μg/kg, i.p. diethylstilbestrol (DES). For the assay, the animal was anaesthetised with urethane (1.75 g/kg, i.p.) and placed on a homeothermic operating table. The trachea was isolated and cannulated with a suitable polyethylene (PE) tubing. A midline incision at the hypogastrium level was made and one uterine horn exposed, its cephalic end cannulated with a PE240 tubing and, after filling the internal cavity with 0.2 ml of sterile physiological saline, connected to a “Gemini” amplifying/recording system via a P23ID Gould Statham pressure transducer.
One jugular vein was isolated, cannulated with a PE60 tubing and connected to a butterfly needle to provide an i.v. route of administration of the test compounds via a dispensing syringe.
In the case of intraduodenal administration of the test compounds, the duodenum can be isolated and similarly cannulated through a small incision in its wall.
One carotid artery was also isolated and cannulated with PE60 catheter and connected to a suitable syringe for blood sample collection.
After a stabilization period and throughout the experiment, the same dose of oxytocin was repeatedly injected intravenously at 30-min intervals. When reproducible contractile responses of the uterus to the same OT stimulus (selected dose of oxytocin) were obtained, the dose of the test compound or of the reference (vehicle) was administered. […]
The contractile response of the uterus to oxytocin was quantified by measuring the intrauterine pressure and the number of contractions. The effect of the reference and test compounds was evaluated by comparing pre- and post-treatment pressure values. […]
The activities of the pyrrolidine derivatives of formula (I) may be assessed using the above described in vivo biological assay. […]

Compound: CO/N=C1\C[C@@H](C(=O)OC)N(C(=O)c2ccc(-c3ccccc3C)cc2)C1 [Methyl (2S,4E)-4-(methoxyimino)-1-[(2′-methyl[1,1′-biphenyl]-4-yl)carbonyl]-2-pyrrolidinecarboxylate]
- IC50 (ratOT-R): 77 nM

Compound: CO/N=C1/C[C@@H](C(=O)OC)N(C(=O)c2ccc(-c3ccccc3C)cc2)C1 [Methyl (2S,4Z)-4-(methoxyimino)-1-[(2′-methyl[1,1′-biphenyl]-4-yl)carbonyl]-2-pyrrolidinecarboxylate]
- IC50 (ratOT-R): 23 nM
- % Reduction of Uterine Contraction ([1]; dose 1 mg/kg): −35.4 ± 7.0%
- % Reduction of Uterine Contraction ([1]; dose 3 mg/kg): −49.0 ± 6.5%
- % Reduction of Uterine Contraction ([1]; dose 10 mg/kg): −51.8 ± 9.2%
- melting point: 40 °C
